Reference: patent US20100087466A1, “NOVEL SMALL MOLECULE DNAK INHIBITORS” (priority 2008, published 2010)
In brackets after ≈: the same amount, converted by molar mass. Where a name gives a salt, the structure may show the parent alone. Read-outs that look alike come from different tables or passages of the source. Non-standard residues stand in square brackets, D forms with d. Residues, ends and D or L forms follow the SMILES beside them. ξ: configuration not given here. *: point of attachment. Phe(4-NH2) = Nc1ccc(C[C@H](N)C(=O)O)cc1; 2Nal = N[C@@H](Cc1ccc2ccccc2c1)C(=O)O; Hydrocinnamoyl = O=C(CCc1ccccc1)*; NH(CH2)3Ph = c1ccc(CCCN*)cc1; 2Pyrimidinyl = c1cnc(*)nc1; ξR = N=C(N)NCCCC(N)C(=O)O; Octanoyl = CCCCCCCC(=O)*; Orn = NCCC[C@H](N)C(=O)O; Piperidide = C1CCN(*)CC1; Cbz = O=C(OCc1ccccc1)*; Boc = CC(C)(C)OC(=O)*; Bn = c1ccc(C*)cc1; NHBu = CCCCN*

Key:
DnaK = DnaK (Escherichia coli, UniProt P0A6Y8); test: DnaK Inhibition Assay (DnaK induced refolding of denatured firefly luciferase); format: biochemical, E. coli; settings: DnaK 200 nM, DnaJ 100 nM, GrpE 400 nM
Sequence of DnaK (P0A6Y8 2-638): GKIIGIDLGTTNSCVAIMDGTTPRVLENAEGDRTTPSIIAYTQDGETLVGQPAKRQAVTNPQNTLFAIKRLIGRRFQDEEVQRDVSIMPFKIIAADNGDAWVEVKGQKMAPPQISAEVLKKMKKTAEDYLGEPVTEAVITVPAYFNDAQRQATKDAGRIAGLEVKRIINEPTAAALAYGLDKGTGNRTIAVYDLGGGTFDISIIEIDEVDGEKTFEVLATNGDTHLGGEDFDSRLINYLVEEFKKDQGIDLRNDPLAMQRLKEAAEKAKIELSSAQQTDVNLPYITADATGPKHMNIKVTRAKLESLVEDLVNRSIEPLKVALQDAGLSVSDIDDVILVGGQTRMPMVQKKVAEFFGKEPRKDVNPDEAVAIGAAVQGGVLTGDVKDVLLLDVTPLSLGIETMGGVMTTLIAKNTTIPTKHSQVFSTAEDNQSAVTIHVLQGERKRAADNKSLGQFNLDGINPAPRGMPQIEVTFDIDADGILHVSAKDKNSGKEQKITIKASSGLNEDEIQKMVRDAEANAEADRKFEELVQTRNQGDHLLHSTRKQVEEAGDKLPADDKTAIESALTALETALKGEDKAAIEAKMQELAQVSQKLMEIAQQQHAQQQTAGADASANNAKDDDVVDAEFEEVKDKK
Procedure: Inhibition of the bacterial DnaK chaperone system may be evaluated by inhibition of the DnaK induced refolding of denatured firefly luciferase. More specifically, firefly luciferase is denatured by treatment with 8N guanidium hydrochloride at room temperature for 30 mins and then 5° C. for 1 h. After dilution into cold MOPS buffer augmented with ATP (2.5 mM) and DTT (12.5 mM) and standing for a further hour, the denatured luciferase is refolded by addition to a mixture of chaperone proteins in MOPS buffer, resulting in a reaction mixture containing denatured luciferase (24 nM), DnaK (200 nM), DnaJ (100 nM) and GrpE (400 nM). The extent of refolding is determined by addition of a luciferase substrate and measurement of the emitted chemoluminescence. In this format the substrate is the commercially available luciferase “Steady-Glo” reagent from Promega, Inc. Inhibition of DnaK induced refolding is determined by premixing the chaperone proteins with the test agent at concentrations of test agent ranging from 1-100 μg/mL. The extent of refolding is compared to that with no test reagent, and the IC50 is estimated by fitting the data to a standard sigmoidal dose-response curve.
Inhibition of the bacterial DnaK chaperone system was evaluated by inhibition of the DnaK induced refolding of denatured firefly luciferase. Firefly luciferase was denatured by treatment with 8N guanidium hydrochloride at room temperature for 30 mins and then 5° C. for 1 h. After dilution into cold MOPS buffer augmented with ATP (2.5 mM) and DTT (12.5 mM) and standing for a further hour, the denatured luciferase was refolded by addition to a mixture of chaperone proteins in MOPS buffer, resulting in a reaction mixture containing denatured luciferase (24 nM), DnaK (200 nM), DnaJ (100 nM) and GrpE (400 nM). The extent of refolding was determined by addition of a luciferase substrate and measurement of the emitted chemoluminescence. In this format the substrate is the commercially available luciferase “Steady-Glo” reagent from Promega, Inc. Inhibition of DnaK induced refolding was determined by premixing the chaperone proteins with the test agent at concentrations of test agent ranging from 1-100 μg/mL. The extent of refolding was compared to that with no test reagent, and the IC50 was estimated by fitting the data to a standard sigmoidal dose-response curve.
IC50 is defined as the concentration in μM at which 50% inhibition of DnaK induced refolding of denatured firefly luciferase occurs.

E. coli (ATCC 25922) = test: Antibacterial activity against E. coli (MIC); format: cell-based; settings: for MIC: Escherichia coli, ATCC25922
[1] = read-out: DnaK IC50(μg/ml) (converted)

Row | Molecule | IC50 (DnaK; read-out: DnaK IC50) [µM] | IC50 (DnaK; [1]) [µM] | MIC (E. coli (ATCC 25922)) [µg/mL] | DnaK IC50(μg/ml) (DnaK) [µg/mL] | E. coli (ATCC 25922) MIC (E. coli (ATCC 25922); ATCC 25922) [µg/mL]
1 | CC(=O)N[C@@H](Cc1ccc(OCc2ccccc2)cc1)C(=O)N[C@@H](CC(C)C)C(=O)N1CCC[C@H]1C(=O)N[C@@H](CCCNC(=N)N)C(=O)N1CCCCC1 [Structure 14] (Ac-Y(Bn)LPR-Piperidide) | 25 | 37.5 | – | – | –
2 | CCCCCCCC(=O)N[C@@H](Cc1ccc(O)cc1)C(=O)N[C@@H](CC(C)C)C(=O)N1CCC[C@H]1C(=O)N[C@H](CCCNC(=N)N)C(=O)N1CCCCC1 [Structure 27, Octanoyl-Tyr-Leu-Pro-Arg-N(CH2)5 trifluoroacetate] (Octanoyl-YLP[dR]-Piperidide) | 8 | 9.45 | – | – | –
3 | CCCCCCCC(=O)N[C@@H](Cc1ccc(OCc2ccccc2)cc1)C(=O)N[C@@H](CC(C)C)C(=O)N1CCC[C@H]1C(=O)N[C@H](CCCNC(=N)N)C(=O)OC [Structure 26, Octanoyl-Tyr(Bzl)-Leu-Pro-Arg-OMe trifluoroacetate] (Octanoyl-Y(Bn)LP[dR]-OMe) | 30 | 34.7 | 32 | – | –
4 | CC(=O)N[C@@H](Cc1ccc(O)cc1)C(=O)N[C@@H](CC(C)C)C(=O)N1CCC[C@H]1C(=O)N[C@@H](CCCNC(=N)N)C(=O)N1CCC[C@H]1C(=O)NCCCc1ccccc1 [Structure 16, Ac-Tyr-Leu-Pro-Arg-Pro-NH(CH2)3Ph.TFA] (Ac-YLPRP-{NH(CH2)3Ph}) | 24 | 32.3 | – | – | –
5 | CC(=O)N[C@@H](Cc1ccc(OCc2ccccc2)cc1)C(=O)N[C@@H](CC(C)C)C(=O)N1CCC[C@H]1C(=O)N[C@@H](CCCNC(=O)OC(C)(C)C)C(=O)N1CCC[C@H]1C(=O)NCCCc1ccccc1 [Structure 17, Ac-Tyr(Bzl)-Leu-Pro-Orn(Boc)-Pro-NH(CH2)3Ph] (Ac-Y(Bn)LP[Orn](Boc)P-{NH(CH2)3Ph}) | 21 | 20 | – | – | –
6 | CC(=O)N[C@@H](Cc1ccc(O)cc1)C(=O)N[C@@H](CC(C)C)C(=O)N1CCC[C@H]1C(=O)N[C@@H](CCCN)C(=O)N1CCC[C@H]1C(=O)NCCCc1ccccc1 [Structure 19, Ac-Tyr-Leu-Pro-Orn-Pro-NH(CH2)3Ph] (Ac-YLP[Orn]P-{NH(CH2)3Ph}) | 40 | 60.4 | – | – | –
7 | CC(=O)N[C@@H](Cc1ccc(OCc2ccccc2)cc1)C(=O)N[C@@H](CC(C)C)C(=O)N1CCC[C@H]1C(=O)N[C@@H](CCCN)C(=O)N1CCC[C@H]1C(=O)NCCCc1ccccc1 [Structure 20, Ac-Tyr(Bzl)-Leu-Pro-Orn-Pro-NH(CH2)3Ph] (Ac-Y(Bn)LP[Orn]P-{NH(CH2)3Ph}) | 16 | 20 | – | – | –
8 | CCC(C)[C@H](NC(=O)[C@H](Cc1ccc(O)cc1)NC(C)=O)C(=O)N[C@@H](CO)C(=O)O (stereo partly drawn) [Structure 24, Ac-Tyr-Ile-Ser-OH] | 240 | 309 | – | – | –
9 | COC(=O)[C@@H]1CCCN1C(=O)[C@H](CC(C)C)NC(=O)[C@H](Cc1ccc(NC(=O)OCc2ccccc2)cc1)NC(C)=O [Structure 6, Ac-4-(NHCbz)Phe-Leu-Pro-OMe] (Ac-[Phe(4-NH2)](Cbz)-Leu-Pro-OMe) | 147 | 420 | – | – | –
10 | CC(=O)N[C@@H](Cc1ccc(NC(=O)OCc2ccccc2)cc1)C(=O)N[C@@H](CC(C)C)C(=O)N1CCC[C@H]1C(=O)O [Structure 7, Ac-4-(NHCbz)Phe-Leu-Pro-OH] (Ac-[Phe(4-NH2)](Cbz)-Leu-Pro-OH) | 72 | 224 | – | – | –
11 | CCC(C)[C@H](NC(=O)[C@H](Cc1ccc(O)cc1)NC(C)=O)C(=O)N[C@@H](CO)C(=O)OC (stereo partly drawn) [Structure 23, Ac-Tyr-Ile-Ser-OMe] | 101 | 530 | – | – | –
12 | 3-(Octylamido)-nicotinoyl-Tyr(Bzl)-Leu-Pro-Arg-OMe trifluoroacetate [Structure 31] | 10 | – | – | 10 | 32
13 | CCCCCCCC(=O)N[C@@H](Cc1ccc(OCc2ccccc2)cc1)C(=O)N[C@@H](CC(C)C)C(=O)N1CCC[C@H]1C(=O)NCCNC(=N)N [Structure 30, Octanoyl-Tyr(Bzl)-Leu-Pro-NH(CH2)2 NH—C(═NH)—NH2 trifluoroacetate] | 19 | 21.7 | 32 | – | –
14 | CCCCCCCC(=O)N[C@@H](Cc1ccc(OCc2ccccc2)cc1)C(=O)N[C@@H](CC(C)C)C(=O)N1CCC[C@H]1C(=O)N1CC[C@H](NC(=N)N)C1 [Structure 29, Octanoyl-Tyr(Bzl)-Leu-Pro-(S)-(3-guanidino)pyrrolidinyl amide] | 10 | 11.1 | 32 (≈ 44.6 µM) | – | –
15 | CCCCCCCC(=O)N[C@H](Cc1ccc(OCc2ccccc2)cc1)C(=O)N[C@@H](CC(C)C)C(=O)N1CCC[C@H]1C(=O)N[C@H](CCCNC(=N)N)C(=O)OC [Structure 25, Octanoyl-(D)-Tyr(Bzl)-Leu-Pro-Arg-OMe trifluoroacetate] (Octanoyl-[dY](Bn)LP[dR]-OMe) | 20 | 23.1 | 128 | – | –
16 | CCCCCCCC(=O)N[C@@H](Cc1ccc(OCc2ccccc2)cc1)C(=O)N[C@@H](CC(C)C)C(=O)N1CCC[C@H]1C(=O)N1CCCC(CNC(=N)N)C1 (stereo partly drawn) [Structure 33, Octanoyl-Tyr(Bzl)-Leu-Pro-(3-guanidinomethylpiperidine) trifluoroacetate] | 23 | 26.8 | 16 | – | –
17 | CC(C)C[C@H](NC(=O)CCc1ccccc1)C(=O)N1CCC[C@H]1C(=O)N[C@@H](CCCNC(=N)N)C(=O)N1CCCCC1 [Structure 13, Ph(CH2)2C(O)-Leu-Pro-Arg-N(CH2)5] (Hydrocinnamoyl-Leu-Pro-Arg-Piperidide) | 12 | 29.1 | – | – | –
18 | CC(=O)N[C@@H](Cc1ccc(O)cc1)C(=O)N[C@@H](CC(C)C)C(=O)N1CCC[C@H]1C(=O)N[C@@H](CCCNC(=O)OC(C)(C)C)C(=O)N1CCC[C@H]1C(=O)NCCCc1ccccc1 [Structure 18, Ac-Tyr-Leu-Pro-Orn(Boc)-Pro-NH(CH2)3Ph] (Ac-YLP[Orn](Boc)P-{NH(CH2)3Ph}) | 54 | 63.8 | – | – | –
19 | CC(=O)N[C@@H](Cc1ccc(O)cc1)C(=O)N[C@@H](CC(C)C)C(=O)N1CCC[C@H]1C(=O)NC(CCCNC(=N)N)C(N)=O (some centres unmarked) [Structure 34] (Ac-YLP[ξR]-NH2) | – | – | > 256 | – | –
20 | CC(C)C[C@H](NC(=O)[C@H](Cc1ccc(O)cc1)NC(=O)OC(C)(C)C)C(=O)N1CCC[C@H]1C(=O)N[C@@H](CCCNC(=N)N)C(=O)N1CCC[C@H]1C(=O)NCCCc1ccccc1 [Structure 12, Boc-Tyr-Leu-Pro-Arg-Pro-NH(CH2)3Ph] (Boc-YLPRP-{NH(CH2)3Ph}) | 11 | 12.8 | – | – | –
21 | CC(=O)N[C@@H](Cc1ccc2ccccc2c1)C(=O)N[C@@H](CC(C)C)C(=O)N1CCC[C@H]1C(=O)O [Structure 9] (Ac-[2Nal]-Leu-Pro-OH) | 62 | 282 | – | – | –
22 | CCCCNC(=O)[C@@H]1CCCN1C(=O)[C@H](CCCNC(=N)N)NC(=O)[C@@H]1CCCN1C(=O)[C@H](CC(C)C)NC(=O)[C@H](Cc1ccc(O)cc1)NC(C)=O [Structure 15, Ac-Tyr-Leu-Pro-Arg-Pro-NHBu.TFA] (Ac-YLPRP-NHBu) | 24 | 39.1 | – | – | –
23 | COC(=O)[C@@H]1CCCN1C(=O)[C@H](CC(C)C)NC(=O)[C@H](Cc1ccc2ccccc2c1)NC(C)=O [Structure 8, Ac-2-Nal-Leu-Pro-OMe] (Ac-[2Nal]-Leu-Pro-OMe) | 30 | 127 | – | – | –
24 | CC(=O)N[C@@H](Cc1ccc(OCc2ccccc2)cc1)C(=O)N[C@@H](CC(C)C)C(=O)N1CCC[C@H]1C(=O)N[C@@H](CCCNc1ncccn1)C(=O)N1CCC[C@H]1C(=O)NCCCc1ccccc1 [Structure 21, Ac-Tyr(Bzl)-Leu-Pro-Orn(2-pyrimidine)-Pro-NH(CH2)3Ph] (Ac-Y(Bn)LP[Orn](2Pyrimidinyl)P-{NH(CH2)3Ph}) | 22 | 22.6 | – | – | –
25 | CC(=O)N[C@@H](Cc1ccc(O)cc1)C(=O)N[C@@H](CC(C)C)C(=O)N1CCC[C@H]1C(=O)N[C@@H](CCCNC(=N)N)C(=O)N1CCCCC1 [Structure 4, Ac-Tyr-Leu-Pro-Arg-N(CH2)5.TFA] (Ac-YLPR-Piperidide) | 3 | 6.09 | – | – | –
26 | CC(=O)N[C@@H](Cc1ccc(OCc2ccccc2)cc1)C(=O)N[C@@H](CC(C)C)C(=O)N1CCC[C@H]1C(=O)NCCCCN [Structure 5, Ac-Tyr(Bzl)-Leu-Pro-NH(CH2)4NH2.TFA] | 45 | 106 | – | – | –
27 | Ac-YLPRP-NH2 [Structure 1, Ac-Tyr-Leu-pro-Arg-Pro-NH2] | 58 | 67.1 | – | – | –
